The text below walks through data of patent publication US20160220542A1, “SYNERGISTIC ACTIVITY OF MODULATORS OF THE NO METABOLISM AND OF NADPH OXIDASE IN THE SENSITISATION OF TUMOR CELLS” (Universitaetsklinikum Freiburg, priority 2010, published 2016).

In experiment [1] the test system is extracellular superoxide anion production of MKN-45 cells. Nature of the experiment: extracellular superoxide anion production of MKN-45 cells (Cu SOD bell curve shift). Conditions: for stimulation of the NADPH oxidase: higher concentration range of the substances. Format: cell-based.
The next experiment has as its system MKN-45 cells. Nature of the experiment: apoptosis induction in MKN-45 tumour cells, single substances and combinations. It counts as cell-based.
The next experiment deals with NO dioxygenase (NOD). Nature of the experiment: inhibition of NO dioxygenase (DEA NONOate-dependent apoptosis in MKN-45 cells). Format: cell-based. The settings on record: for available NO concentration through inhibition of the NOD: broad concentration range. The protocol:
This test is based on the fact that NOD also effectively converts exogenously added NO into nitrate and thus in suitable cell systems (such as for example the tumour cell line MKN-45) can prevent apoptosis induction by NO/peroxynitrite.
This rules out a test substance having an influence over the reaction as a whole, through modulation of the catalase activity. The hydrogen peroxide released following the catalase inhibition is fully decomposed by 20-25 μM of the catalase mimetic EUK-134 (similar to the abovementioned EUK-8, but with a lower peroxidise activity). In this way both the HOCl pathway and the consumption of NO by hydrogen peroxide are prevented. For the modulation of the available NO concentration with the known mechanisms now only the NOD remains. If this is inhibited then the addition of exogenous NO leads to an increased apoptosis induction.
12 500 MKN-45 cells in 100 μl Medium had 200 mM 3-AT, 2.4 mM NAME, 25 μM EUK-134 and the stated concentrations of epothilone B (“EPO”) added. […] Then the stated concentrations of the NO donor DEANONOate were added and the preparations were incubated for a further 2 hours at 37° C. before the percentages of apoptotic cells were determined.
The experiment was carried out in the same way as described in FIG. 10, but with the difference that the stated concentrations of DADS (FIG. 11A) or Taxol (FIG. 11B) were used and the determination of the apoptotic cells took place after 3 hours.

Experiment [2] concerns transformed rat fibroblast line 208Fsrc3. Nature of the experiment: autocrine, ROS mediated apoptosis induction in transformed cells. Format: cell-based. Conditions: 22 hours. On the procedure: 12 500 cells of the transformed rat fibroblast line 208Fsrc3 per 100 μl complete medium were sown in 96 hole plates. Following growth 20 ng/ml TGF-beta-1 were added to all preparations. To the preparations the stated concentrations of Cu SOD (from bovine erythroctes) or Mn SOD (from E. coli) were added. Some of the preparations received 50 mM of the HOCl receptor taurine (TAU), 150 μM of the peroxidase inhibitor 4-aminobenzoylhydrazide (ABH) or 10 mM of the hydroxyl radical scavenger mannitol. After 22 hours the percentages of apoptotic cells were determined on the basis of the conventional apoptosis characteristics of nuclear condensation, nuclear fragmentation or membrane blebbing in each case in duplicate preparations.

The test system of experiment [3] is transformed 208Fsrc3 cells. Nature of the experiment: apoptosis induction mediated by added myeloperoxidase (MPO). It counts as cell-based, rat. The settings on record: 200 mU/ml MPO; 100 U/ml catalase, 50 mM taurine, 10 mM mannitol; 5 hours. On the procedure:
Instead of the autocrine apoptosis induction illustrated in Example 1, in the experiment illustrated in Example 2 the HOCl signalling pathway is accelerated by addition of exogenous MPO (FIG. 2A) or the NO/peroxynitrite pathway is induced by addition of the rapidly decomposing NO donor DEA NONOate.
12 500 transformed 208Fsrc3 cells per preparation (96 hole plate, 100 μl medium) were sown. Under A these also received 200 mU/ml MPO, and under B additionally 1.5 mM DEA NONOate. Control preparations remained free of MPO or DEA NONOate. In Part A additionally 100 U/ml catalase (KAT), 50 mM taurine (TAU), and 10 mM mannitol (MANN) were used.
In FIG. 2B the addition took place of 25 μM of the catalytically effective peroxynitrite destroyer FeTPPS. The duplicate preparations under A were assessed after 5 hours, and those under B after just 3 hours. […] The inhibitors confirm the involvement of hydrogen peroxide (inhibition by catalase), HOCl (inhibition by taurine), and hydroxyl radicals (inhibition by mannitol). Again a bell curve was obtained, the right part of which is dependent upon the availability of HOCl and the effect of hydroxyl radicals.

With Photofrin, the “stimulation of the NADPH oxidase by singlet oxygen” value in experiment [1] (1 μg/ml Photofrin exposed to light, 100 mM 3-AT, 5 hours) is on record as “significant stimulation of the NADPH oxidase”.
Regarding `N=C(N)NCCC[C@H](N)C(=O)O` [arginine], in the experiment with MKN-45 cells, the “apoptosis induction by arginine alone” value was “concentration-dependent apoptosis induction” and the “dependence of apoptosis on caspase-8 / FAS” value is recorded as “strictly dependent upon the involvement of a caspase-8-mediated step”.
As to `C/C(=C\c1csc(C)n1)[C@@H]1C[C@@H]2O[C@]2(C)CCC[C@H](C)[C@H](O)[C@@H](C)C(=O)C(C)(C)[C@@H](O)CC(=O)O1` [epothilone B], in experiment [1], the “effect on superoxide anion production” value is “did not demonstrate any effect” and the “stimulation of the NADPH oxidase” value is given as “simultaneous stimulation of the NADPH oxidase”. Besides, the “increase in superoxide anion production” value in experiment [1] (highest concentration of epothilone B, 150 mM 3-AT, 8 hours) is given as “fourfold”. The “effect on DEA NONOate-dependent apoptosis (NOD inhibition)” value in the experiment with NO dioxygenase (NOD) (all concentrations used, 200 mM 3-AT, 2.4 mM NAME, 25 μM EUK-134, 2 hours) is recorded as “led to an increase in the DEA-NONOATE-dependent apoptosis”. Moreover, the “available NO concentration through inhibition of the NOD” value with NO dioxygenase (NOD) is reported as “increase in the available NO concentration”. Also, the apoptosis induction result with MKN-45 cells (0.75 ng/ml epothilone B alone, 3 hours) is “neither the low epothilone B concentration nor resveratrol on its own was able to induce apoptosis”.
As for `Oc1ccc(C=Cc2cc(O)cc(O)c2)cc1` [resveratrol], the “increase in superoxide anion production” value in experiment [1] (4 or 20 μg/ml resveratrol, 120 μM EUK-8, 4 hours) is 8-16 times. Moreover, the “inhibitory capability of the NOD” value with NO dioxygenase (NOD) (data not shown) was “no indications of an inhibitory capability of the NOD”. Further, the apoptosis induction entry was “neither the low epothilone B concentration nor resveratrol on its own was able to induce apoptosis” in the experiment on MKN-45 cells (25 μg/ml resveratrol alone, 3 hours) and “induced no apoptosis” in the experiment with MKN-45 cells (each stated concentration of resveratrol alone, 4.5 hours). Further, the “apoptosis induction by resveratrol alone” value with MKN-45 cells (0.2 or 20 μM resveratrol, 4.5 hours) was “little more than background apoptosis”.
Turning to `C=CCN=C=S` [allyl isothiocyanate], in experiment [1], the “stimulation of the NADPH oxidase” value is recorded as “simultaneous stimulation of the NADPH oxidase”. Besides, in the experiment with NO dioxygenase (NOD), the “available NO concentration through inhibition of the NOD” value is recorded as “increase in the available NO concentration”.
For the molecule `NNC(=O)c1ccc(N)cc1` [ABH, 4-aminobenzoylhydrazide], the “effect on autocrine apoptosis” value in experiment [2] (50 mM taurine, 150 μM ABH or 10 mM mannitol) is “completely inhibited”.
Regarding `C=CCSSCC=C` [DADS, diallyl disulfide], the “effect on available NO concentration (NOD inhibition)” value in the experiment with NO dioxygenase (NOD) (as Example 10, 3 hours) is listed as “led to an increase in the available NO concentration”.
For `Oc1cc(O)c2cc(O)c(-c3ccc(O)c(O)c3)[o+]c2c1.[Cl-]` [cyanidin chloride], the “dependence of the effect on caspase-8” value in the experiment with MKN-45 cells (high cyanidin chloride concentration, 3 hours) is “dependent upon caspase-8”.
Regarding catalase, the “effect on MPO-mediated apoptosis (HOCl pathway)” value in experiment [3] is on record as “inhibition”.

B1: MPO: exogenous myeloperoxidase (protein, UniProt P05164 165-745, looked up)
Myeloperoxidase: VTCPEQDKYRTITGMCNNRRSPTLGASNRAFVRWLPAEYEDGFSLPYGWTPGVKRNGFPVALARAVSNEIVRFPTDQLTPDQERSLMFMQWGQLLDHDLDFTPEPAARASFVTGVNCETSCVQQPPCFPLKIPPNDPRIKNQADCIPFFRSCPACPGSNITIRNQINALTSFVDASMVYGSEEPLARNLRNMSNQLGLLAVNQRFQDNGRALLPFDNLHDDPCLLTNRSARIPCFLAGDTRSSEMPELTSMHTLLLREHNRLATELKSLNPRWDGERLYQEARKIVGAMVQIITYRDYLPLVLGPTAMRKYLPTYRSYNDSVDPRIANVFTNAFRYGHTLIQPFMFRLDNRYQPMEPNPRVPLSRVFFASWRVVLEGGIDPILRGLMATPAKLNRQNQIAVDEIRERLFEQVMRIGLDLPALNMQRSRDHGLPGYNAWRRFCGLPQPETVGQLGTVLRNLKLARKLMEQYGTPNNIDIWMGGVSEPLKRKGRVGPLLACIIGTQFRKLRDGDRFWWENEGVFSMQQRQALAQISLPRIICDNTGITTVSKNNIFMSNSYPRDFVNCSTLPALNLASWREAS
As for B1, the “effect on MPO-mediated apoptosis (HOCl pathway)” value in experiment [3] is on record as “accelerates the HOCl pathway”.

B2: Mn SOD: Mn-containing superoxide dismutase from E. coli (protein, UniProt P00448 2-206, looked up)
Superoxide dismutase [Mn]: SYTLPSLPYAYDALEPHFDKQTMEIHHTKHHQTYVNNANAALESLPEFANLPVEELITKLDQLPADKKTVLRNNAGGHANHSLFWKGLKKGTTLQGDLKAAIERDFGSVDNFKAEFEKAAASRFGSGWAWLVLKGDKLAVVSTANQDSPLMGEAISGASGFPIMGLDVWEHAYYLKFQNRRPDYIKEFWNVVNWDEAAARFAAKK
Turning to B2, in experiment [2] (concentrations above maximum inhibition), the “effect of higher SOD concentrations on apoptosis” value is “once the maximum inhibition has been reached this is maintained”.
